# Where “and” joins values, the source holds several entries; their conditions need not be identical. Equal entries are not always repeated.
# How the values were obtained:
# [1] = biological target: IKs (KCNQ1 + KCNE1) (Homo sapiens, UniProt P51787); experiment: IKs co-expressed with CiVSP (PIP2 depletion), two-electrode voltage clamp in Xenopus oocytes; assay type: cell-based
# Description: We co-expressed KCNQ1 with the voltage-dependent lipid phosphatase CiVSP[44] in Xenopus oocytes and recorded KCNQ1 currents using two-electrode voltage clamp with consecutive depolarizing voltage pulses. […] To more directly test CP1 effects, we applied CP1 to the intracellular side of the inside-out membrane patch that expressed IKs channels.
# [2] = tested on: guinea pig ventricular myocytes; experiment: Action potential recording in ventricular myocytes with moxifloxacin-prolonged (LQT) action potentials; assay type: cell-based; design: actional potential duration (APD), Fig. 7h: unit not given here; conditions: for actional potential duration (APD), Fig. 7h: Moxi-Group, individual cells
# Description: Fig. 7 Effects of CP1 on IKs and action potentials in cardiomyocytes. a IKs currents in guinea pig ventricular myocytes in the absence and presence of 30 µM CP1 in the whole-cell patch-clamp configuration. Holding potential: −40 mV; testing potentials: −20 to +60 mV with 10-mV increment; returning potential: −20 mV. […] Guinea pig ventricular myocytes were first perfused with 10 µM CP1 and 10 µM chromanol. After APD reached steady state, 10 µM CP1 was constitutively perfused alone. Last, CP1 was washed out for near-full reversal of APD shortening. g Effects of 0.2 µM CP1 on LQT action potentials. To mimic the LQT, 100 µM moxifloxacin was applied 2 h before the treatment of CP1. h Change of action potential duration after application of different [CP1]s (n = 5–7). Tukey–Kramer ANOVA test was used to compare control cells in different CP1 concentration, # is significant at P < 0.05. Unpaired two-tailed Student t tests were used to compare control and moxifloxacin cells at different CP1 concentration: * is significant at P < 0.05.
# In ventricular myocytes, the duration and the morphology of action potentials are determined by various ion channels. Mutations in many of these channels and drugs that modify channel functions, such as an increase in inward Na^+ currents or decrease in outward K^+ currents, may lead to a prolonged action potential duration, which results in an inherited or acquired long QT syndrome that predisposes afflicted patients to cardiac arrhythmia. An enhancement of the outward IKs current may be able to counter these mutations or drug effects, and restore the action potential duration to more normal values. […] Next, we used an IKr blocker (Moxifloxacin, Moxi) to prolong action potentials and then applied various concentrations of CP1.
# The use of guinea pigs was approved by the Stony Brook University Institutional Animal Care and Use Committee. Single ventricular myocytes were acutely enzymatically isolated from guinea pig heart as previously described. Guinea pigs, weighing 300–500 g, were sacrificed by peritoneal injection of sodium pentobarbitone (1 ml, 390 mg/ml). The isolated cells were stored in KB solution containing (in mM) 83 KCl, 30 K2HPO4, 5 MgSO4, 5 Na pyruvate, 5 β-OH-butyric acid, 20 creatine, 20 taurine, 10 glucose, and 0.5 EGTA, pH 7.2.
# Action potentials were recorded with whole-cell patch-clamp recording techniques. Current-clamp configuration was used. Freshly isolated guinea pig cardiac myocytes were placed at 1 Hz with a stimulus of 180-pA amplitude and 10-mS duration. The APD was determined at 90% repolarization. Several minutes were allowed for the APD to reach steady state before data were collected. Typical Tyrode mimic AP Solution for action potential recording was used. The bath solution is composed of (in mM) 140 NaCl, 3 KCl, 1 MgCl2, 1.8 CaCl2, 10 HEPES, and 10 Glucose, pH 7.4. The pipette solution is composed of (in mM) 115 K-aspartic acid, 35 KOH, 3 MgCl2, 10 HEPES, 11 EGTA, 5 Glucose, and 3 MgATP, pH 7.4.
structure (smiles),measurement,setting,value
"O=S(=O)([O-])Oc1c(-c2sc3c(ccc4cccc(Cl)c43)c2OS(=O)(=O)[O-])[nH]c2ccc(Br)cc12.[Na+].[Na+] [CP1, DISODIUM 5-BROMO-2-[9-CHLORO-3-(SULFONATOOXY) NAPHTHO [1,2-B] THIEN-2-YL]-1H-INDOL-3-YL SULFATE]",IKs currents after PIP2 depletion,"[1]; 10 µM CP1, extracellular perfusion, pulses to +60 mV",rescued IKs currents
same,membrane permeability,[1]; inferred from rescue by extracellular perfusion,membrane permeable
same,action potential duration,"[2]; 0.2 µM CP1, 100 µM moxifloxacin applied 2 h before",return the action potential duration back to normal
same,action potential duration,"[2]; 0.6 and 6 µM CP1, moxifloxacin",reduced Moxifloxacin-induced action potential prolongation
same,"actional potential duration (APD), Fig. 7h",[2]; 0.2 µM CP1,628 and 590 and 655 and 646 and 548 and 586
same,"actional potential duration (APD), Fig. 7h",[2]; 0.6 µM CP1,549 and 521 and 579 and 388 and 495
same,"actional potential duration (APD), Fig. 7h",[2]; 6 µM CP1,393 and 380 and 396 and 407 and 426 and 406

# Source: paper PMC7367283, “A PIP2 substitute mediates voltage sensor-pore coupling in KCNQ activation” (Communications Biology, 2020)
